# From patent publication US10544152B2, “5-HT2CR agonist analogs” (The Board of Regents of The University of Texas System, priority 2017, dated 2020)
# Where two headings read alike, the source gives them in different places.
# Experiments:
# 5-HT2CR [1] = target: T1, 5-HT2CR (Homo sapiens (Human), UniProt P28335); assay: Intracellular calcium (Cai++) release assay, FLIPR Calcium 4, U2OS cells stably expressing 5-HT2CR; assay type: cell-based; conditions: for Emax: % Cai++ release obtained with 1 μM of WAY163909 (1), U2OS cells expressing human 5-HT2CR; for EC50: Cai++ release, U2OS cell line stably expressing human 5-HT2CR, mean ± SEM, at least three independent experiments
# Description: The PathHunter® U2OS HTR2C β-Arrestin cell line (5-HT2cR-U2OS; DiscoveRx) stably express the nonedited human 5-HT2CR isoform (h5-HT2CR). The 5-HT2CR-U2OS cells were grown in Assay Complete™ U2OS Medium 31 (DiscoveRx) at 37° C., 5% CO2 and 85% relative humidity according to manufacturer's recommendations utilizing AssayComplete™ Cell Detachment Reagent (DiscoveRx). Cells were passaged at 70-80% confluence and all experiments were conducted using cells in log phase growth.
# The ability of the molecules to act as agonists to induce 5-HT2CR-mediated intracellular calcium (Cai^++) release was conducted in an U2OS cell line stably expressing the human 5-HT2CR.
# Intracellular calcium (Cai^++) release was monitored using the FLIPR Calcium 4 Assay Kit (Molecular Devices) according to previously published protocols with minor modifications. See, e.g., Shashack, M. J., et al., ACS Chem Neurosci. 2 (11), 640-644 (2011); Seitz, P. K.; Bremer, N. M., et al., BMC Neurosci. 13, 25 (2012).
# Cells were plated at 5,000-7,000 cells/well in Assay Complete™ Cell Plating Reagent 16 (DiscoveRx) in black-sided, clear bottomed 96-well tissue culture plates and allowed to adhere overnight. Medium was removed and replaced with 40 μl Hank's balanced salt solution without calcium, magnesium and phenol red (HBSS; Corning) plus 40 μl Calcium 4 dye solution in Buffer B supplemented with 2.5 mM probenecid (Sigma-Aldrich) to inhibit extracellular dye transport. Plates were incubated for 60 min at 37° C. followed by 30 min at room temperature in the dark.
# Fluorescence (λex=485 nm, λem=525 nm) was measured using a FlexStation3 (Molecular Devices). Baseline was established for 17 secs before addition of 20 μl vehicle (HBSS without calcium or magnesium) or 5× concentrated compound. […] Maximum peak height was determined using FlexStation software (SoftMax Pro 5.4). After the final readings, cells were fixed in 2% paraformaldehyde overnight.
# Peak responses from each well were normalized to total cell mass as determined with crystal violet staining. See e.g., Ding, C. et al., ACS Chem. Neurosci 3 (7), 538-545 (2012). […] Potency of the compounds was determined using the EC50 (concentration of compound required to achieve half-maximal response). The EC50 values were determined using 4-parameter nonlinear regression analysis and calculated from at least three independent experiments, each conducted in triplicate, and are presented as mean±SEM. Ratkowsky, D. A., et al., Biometrics 42, 575-582 (1986).
# 5-HT2AR = 5-HT2AR (Homo sapiens (Human), UniProt P28223); assay: CEREP radioligand displacement of [125I]-(±)-DOI at 5-HT2AR; conditions: read-out: mean percent inhibition of control specific binding, 5-HT2AR
# Description: (§1) Compounds were submitted to CEREP to determine receptor selectivity at the 5-HT2 Compounds were tested at a single concentration of 10 μM in duplicate to determine their ability to displace [^125I]-(±)-DOI. The data are presented as mean percent inhibition of control specific binding for compound tested at each receptor subtype (Table 2). Significant inhibition is considered >50%; 25-50% inhibition is indicative of weak to moderate effects.
# 5-HT2CR [2] = target: T1, 5-HT2CR; assay: CEREP radioligand displacement of [125I]-(±)-DOI at 5-HT2CR; conditions: duplicate, read-out: mean percent inhibition of control specific binding, 5-HT2CR
# Description: as §1
# 5-HT2BR = 5-HT2BR (Homo sapiens (Human), UniProt P41595); assay: CEREP radioligand displacement of [125I]-(±)-DOI at 5-HT2BR; conditions: duplicate, read-out: mean percent inhibition of control specific binding, 5-HT2BR
# Description: as §1
# T1 sequence (P28335 33-458): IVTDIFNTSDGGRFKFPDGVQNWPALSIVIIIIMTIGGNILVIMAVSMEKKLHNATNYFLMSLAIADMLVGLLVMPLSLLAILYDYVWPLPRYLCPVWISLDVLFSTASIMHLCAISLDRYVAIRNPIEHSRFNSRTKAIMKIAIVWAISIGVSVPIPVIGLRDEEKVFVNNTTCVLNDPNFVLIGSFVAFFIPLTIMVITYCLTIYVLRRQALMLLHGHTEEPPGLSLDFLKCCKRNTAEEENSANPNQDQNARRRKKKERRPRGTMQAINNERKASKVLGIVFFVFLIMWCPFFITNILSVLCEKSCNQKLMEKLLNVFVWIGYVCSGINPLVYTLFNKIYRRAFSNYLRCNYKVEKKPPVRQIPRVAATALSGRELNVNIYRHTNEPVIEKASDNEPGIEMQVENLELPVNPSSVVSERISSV
# 5-HT2AR, sequence (P28223 whole entry): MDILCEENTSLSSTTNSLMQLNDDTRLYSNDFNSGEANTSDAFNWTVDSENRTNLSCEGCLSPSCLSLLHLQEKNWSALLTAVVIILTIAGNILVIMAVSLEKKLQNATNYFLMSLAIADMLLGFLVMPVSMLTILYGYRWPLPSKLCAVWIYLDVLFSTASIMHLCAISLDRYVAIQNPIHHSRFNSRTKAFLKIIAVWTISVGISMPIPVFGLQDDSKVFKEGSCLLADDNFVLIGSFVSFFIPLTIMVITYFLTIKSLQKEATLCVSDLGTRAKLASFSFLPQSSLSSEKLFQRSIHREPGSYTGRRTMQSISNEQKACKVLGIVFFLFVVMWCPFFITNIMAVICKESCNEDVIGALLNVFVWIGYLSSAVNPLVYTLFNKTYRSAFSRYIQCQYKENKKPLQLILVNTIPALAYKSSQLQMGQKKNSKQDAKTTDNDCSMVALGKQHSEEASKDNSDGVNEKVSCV
# 5-HT2BR, sequence (P41595 whole entry): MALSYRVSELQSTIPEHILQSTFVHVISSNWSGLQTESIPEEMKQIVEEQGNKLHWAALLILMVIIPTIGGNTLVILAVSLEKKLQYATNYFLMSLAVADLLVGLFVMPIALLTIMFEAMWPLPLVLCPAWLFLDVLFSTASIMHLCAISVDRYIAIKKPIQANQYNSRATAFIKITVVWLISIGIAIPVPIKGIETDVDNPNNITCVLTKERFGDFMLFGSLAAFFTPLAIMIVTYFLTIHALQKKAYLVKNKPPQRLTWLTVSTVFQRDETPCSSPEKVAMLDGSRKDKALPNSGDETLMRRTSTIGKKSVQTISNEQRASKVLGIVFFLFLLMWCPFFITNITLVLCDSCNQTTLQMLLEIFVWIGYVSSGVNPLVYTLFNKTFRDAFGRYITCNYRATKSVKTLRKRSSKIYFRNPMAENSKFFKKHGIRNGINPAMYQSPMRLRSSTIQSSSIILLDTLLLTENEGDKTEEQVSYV
Emax (5-HT2CR [1]) [%],EC50 (5-HT2CR [1]) [nM],SMILES,inhibition at 10 µM (5-HT2AR) [%],inhibition at 10 µM (5-HT2CR [2]) [%],inhibition at 10 µM (5-HT2BR) [%],"inhibition at 10 µM (5-HT2AR; 10 μM, duplicate, displacement of [125I]-(±)-DOI) [%]"
95.9 ± 1.5,1480 ± 238,COc1cc2c3c(c1)[C@H]1CCC[C@H]1N3CCNC2 (racemic) [Compound 17],–,–,–,–
103 ± 4.6,2.4 ± 0.4,"COc1ccc2c3c1C1CCCC1N3CCNC2 (racemic) [Compound 18, 7-methoxy-2,3,4,7b,8,9,10,10a-octahydro-1H-cyclopenta[b][1,4]diazepino[6,7,1-hi]indole]",–,–,–,–
95.9 ± 2.6,119 ± 11.5,Oc1ccc2c3c1[C@H]1CCC[C@H]1N3CCNC2 (racemic) [Compound 35],–,–,–,–
97.2 ± 2.3,51.9 ± 9.6,"C#CCOCCOc1ccc2c3c1C1CCCC1N3CCNC2 (racemic) [Compound 44, 7-(2-(Prop-2-ynyloxy)ethoxy)-2,3,4,7b,8,9,10,10a-octahydro-1H-cyclopenta[b][1,4]diazepino[6,7,1-hi]indole]",–,–,–,–
100,0.33 ± 0.1,"OCCc1c[nH]c2ccc(O)cc12 [Compound 27, reference compound]",–,–,–,–
95.2 ± 2.3,575 ± 112,"C#CCOCCOCCOCCOc1ccc2c3c1C1CCCC1N3CCNC2 (stereo not shown) [Compound 46, 7-(2-(2-(2-(prop-2-ynyloxy)ethoxy)ethoxy)ethoxy)-2,3,4,7b,8,9,10,10a-octahydro-1H-cyclopenta[b][1,4]diazepino[6,7,1-hi]indole]",–,–,–,–

SMILES,Emax (5-HT2CR [1]) [%],EC50 (5-HT2CR [1]) [nM],inhibition at 10 µM (5-HT2AR) [%],inhibition at 10 µM (5-HT2CR [2]) [%],inhibition at 10 µM (5-HT2BR) [%],"inhibition at 10 µM (5-HT2AR; 10 μM, duplicate, displacement of [125I]-(±)-DOI) [%]"
"c1cc2c3c(c1)[C@H]1CCC[C@H]1N3CCNC2 (racemic) [Compound 1, (7bR,10aR)-1,2,3,4,8,9,10,10a-octahydro-7bH-cyclopenta-[b][1,4]diazepino[6,7,1hi]indole, reference compound]",100,–,–,–,–,–
"COc1ccc2c3c1[C@H]1CCC[C@H]1N3CCNC2 (racemic) [Compound 36, 7-methoxy-2,3,4,7b,8,9,10,10a-octahydro-1H-cyclopenta[b][1,4]diazepino[6,7,1-hi]indole]",105 ± 6.1,1.2 ± 0.3,86.5,100,98.6,–
"C#CCOCCOCCOc1ccc2c3c1C1CCCC1N3CCNC2 (racemic) [Compound 45, 7-(2-(2-(prop-2-ynyloxy)ethoxy)ethoxy)-2,3,4,7b,8,9,10,10a-octahydro-1H-cyclopenta[b][1,4]diazepino[6,7,1-hi]indole]",99.3 ± 2.2,218 ± 53.1,–,99.6,67.7,67.1
"COc1ccc2c3c1[C@@H]1CCC[C@@H]1N3CCNC2 (stereo in doubt) [Compound 37, 7-methoxy-2,3,4,7b,8,9,10,10a-octahydro-1H-cyclopenta[b][1,4]diazepino[6,7,1-hi]indole]",97.6 ± 4.7,72.4 ± 14.5,22.8,91.5,4.8,–
